The source of these data is US7045617B2, “Bisbubstrate inhibitors of kinases” (priority 2000, dated 2006).

For orientation: half-life means the time in which the quantity being followed falls by half. Usually Ki stands for a measure of affinity in units of concentration, obtained from inhibition or displacement. The term Km denotes the substrate concentration at which the rate is half of its maximum.

Read-outs that look alike come from different tables or passages of the source. Where a SMILES comes first, the peptide text is derived from it. [ ]: non-standard residue; d: D form. The star is where a group is joined. X1 = Nc1ncnc2c1ncn2[C@@H]1O[C@H](COP(=O)(O)OP(=O)(O)OP(=O)(O)SCC(=O)*)[C@@H](O)[C@H]1O; Phe(4-NH2) = Nc1ccc(C[C@H](N)C(=O)O)cc1; Dap = NC[C@H](N)C(=O)O

The target in series [1] is activated recombinant IRK (insulin receptor kinase) (Homo sapiens, UniProt P06213). Kind of series: Steady-state kinetic analysis of IRK inhibition (kinase assay). To be noted: for binding energy: binding to IRK. It counts as biochemical. How it is done: FIG. 2. […] Assays were carried out using activated recombinant IRK as described previously. 6 a, E/V vs. 1/ATP in the presence of varying. Conditions: fixed IRS727 concentration ([…]), 20 mM MgCl2, 0.5 mM DTT, 6 nM IRK, 0.05% bovine serum albumin, Tris-Acetate pH 7, 10 min reaction time. b, E/V vs. 1/IRS727 in the presence of varying. Conditions same as for a except fixed ATP ([…]), 8 nM IRK and 5 min reaction time.
Sequence of activated recombinant IRK (insulin receptor kinase) (P06213 1005-1310 limits assumed): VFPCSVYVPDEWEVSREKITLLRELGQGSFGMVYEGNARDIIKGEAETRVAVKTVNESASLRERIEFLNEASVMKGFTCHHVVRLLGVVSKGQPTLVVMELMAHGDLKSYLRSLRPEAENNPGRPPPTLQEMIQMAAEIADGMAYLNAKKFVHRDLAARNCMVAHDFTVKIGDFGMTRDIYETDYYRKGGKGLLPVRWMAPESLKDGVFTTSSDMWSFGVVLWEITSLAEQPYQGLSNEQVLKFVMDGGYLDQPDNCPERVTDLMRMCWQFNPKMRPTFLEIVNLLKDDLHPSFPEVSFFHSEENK
v=Vm(S)/[Km(1+I/Ki)+S]; v=initial velocity, Vm=maximal velocity, S=substrate concentration, Km=Michaelis constant. […] Conditions: Incubation of […] +/−5 mM 2 for 10 min in reaction buffer (20 mM MgCl2, 0.5 mM DTT, 0.05% BSA, 50 mM Tris-Acetate, pH 7) then dilute 1:50 into reaction buffer containing 1 mM ATP and […] peptide6 IRS939 and measure conversion by HPLC at times shown. To determine koff, data were fit to the equation^17: […]
Assays were carried out using activated recombinant IRK as described previously^6. For E/V vs. 1/ATP plot the conditions were: […] IRS727 concentration, 20 mM MgCl2, 0.5 mM DTT, 6 nM IRK, 0.05% bovine serum albumin, 50 mM Tris-Acetate pH 7, 10 min reaction time. For E/V vs. 1/IRS727 in the conditions were the same except fixed ATP ([…]) was employed, 8 nM IRK and 5 min reaction time.
v=Vm(S)/[Km(1+I/Ki)+S]; v=initial velocity, Vm=maximal velocity, S=substrate concentration, Km=Michaelis constant.

A short description of series [2]: Stability of compound in aqueous solution. It counts as physicochemical. The source says:
The protected peptide was assembled using solid-phase peptide synthesis using Fmoc chemistry, in which the single tyrosine of IRS727 was replaced with commercially available nitrophenylalanine. The nitro group was reduced with SnCl2 and the aniline function was bromoacetylated via standard coupling conditions. The peptide was cleaved from the resin and deblocked with trifluoroacetic acid, water, and thioanisole and purified by reversed phase HPLC. […] The peptide-ATP conjugate 2 was purified by reversed phase HPLC and characterized by electrospray mass spectrometry and 1H NMR.

Series [3] has as its target T1, recombinant mouse PKA (catalytic subunit) (Mus musculus, UniProt P05132).
T1 construct: purchased Calbiochem
Kind of series: PKA inhibition assay (Calbiochem kit, Dixon plot). The format is biochemical. Particulars: preliminary assays. The procedure: Reagents from Calbiochem's Protein Kinase A kit were used to perform the inhibition assays and recombinant mouse PKA (catalytic subunit) was also purchased from Calbiochem (enzyme concentration was established by Bradford analysis). A 0.76 mM stock solution of kemptide-ATPγS conjugate was prepared and used to make serial dilutions into an aqueous MgCl2 solution (53 mM), producing a range of inhibitor concentrations from 144 uM to 1.4 μM with Mg2+ concentration of 47.7 mM. These were further diluted into water to produce a range of inhibitor solutions between 51 μM and 507 nM. An 11.25 μL aliquot from each of these solutions was pre-incubated with 7.5 μL of a 1.75 nM PKA enzyme solution (750 ug/uL bovine serum albumin) for 10 minutes at 30° C. after which 12.5 μL of pre-incubation mix was added to 12.5 μL of reaction mix (30 μM cold ATP, 50 μM biotinylated kemptide substrate, 0.04 uCi/μL γP-32 ATP, 80 mM Tris-HCl, 10 mM MgCl2, pH 7.5) to initiate the enzymatic reaction. […] The columns were placed in scintillation vials and radioactivity was measured using a scintillation counter.

The target of series [4] is Csk (Homo sapiens, UniProt P41240). Kind of series: Inhibition of protein tyrosine kinase Csk. It counts as biochemical. To be noted: read-out: Km (ATP). The procedure: The specificity of inhibition was also tested by assaying 2 as an inhibitor of the protein tyrosine kinase Csk18. The peptide binding selectivity for Csk is quite different from IRK, and the IRS727 peptide moiety would be predicted to bind poorly to this enzyme^19. […] Thus the bisubstrate analog approach should allow for kinase selectivity based in part on peptide sequence.
Sequence of Csk (P41240 whole entry, species assumed): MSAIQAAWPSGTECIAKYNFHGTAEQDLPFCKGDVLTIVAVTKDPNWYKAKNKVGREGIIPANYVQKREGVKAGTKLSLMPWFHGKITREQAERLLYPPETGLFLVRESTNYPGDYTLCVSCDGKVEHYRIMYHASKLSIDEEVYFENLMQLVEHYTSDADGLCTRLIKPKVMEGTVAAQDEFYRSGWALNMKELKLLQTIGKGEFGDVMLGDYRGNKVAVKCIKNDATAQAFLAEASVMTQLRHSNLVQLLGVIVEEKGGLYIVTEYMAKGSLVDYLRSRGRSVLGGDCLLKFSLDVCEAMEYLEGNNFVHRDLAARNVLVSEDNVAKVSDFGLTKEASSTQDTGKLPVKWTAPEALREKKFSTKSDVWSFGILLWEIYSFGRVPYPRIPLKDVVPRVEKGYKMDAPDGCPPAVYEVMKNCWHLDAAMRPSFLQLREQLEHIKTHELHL

`CSCC[C@H](NC(=O)[C@H](Cc1ccc(NC(=O)CSP(=O)(O)OP(=O)(O)OP(=O)(O)OC[C@H]2O[C@@H](n3cnc4c(N)ncnc43)[C@H](O)[C@@H]2O)cc1)NC(=O)[C@H](CC(=O)O)NC(=O)CNC(=O)[C@@H](NC(=O)[C@H](C)NC(=O)[C@@H]1CCCN1C(=O)[C@H](CC(C)C)NC(=O)[C@H](CCCCN)NC(=O)[C@H](CCCCN)NC(=O)[C@H](CCCCN)NC(C)=O)[C@@H](C)O)C(=O)N[C@@H](CC(N)=O)C(=O)N[C@@H](CCSC)C(=O)N[C@@H](CO)C(=O)N1CCC[C@H]1C(=O)N[C@H](C(=O)NCC(=O)N[C@@H](CC(=O)O)C(=O)O)C(C)C` [Compound 2] (Ac-KKKLPATGD[Phe(4-NH2)](X1)MNMSPVGD-OH): in series [1], the “mode of inhibition of IRK” value was “linear competitive inhibitor versus both nucleotide (FIG. 2a) and peptide (FIG. 2b) substrates”; the binding energy is listed as 8.9 kcal/mol. For the same compound, in series [2] (acidic solution (pH 2), read-out: half life of decomposition (converted)), the half-life is about 120 min. Moreover, the storage stability result in series [2] (frozen solution at −80° C. for several weeks) is “without detectable decomposition”. For the same compound, in series [2] (neutral pH, room temperature), the “time stable in aqueous solution” value is over 12 h.
Consider `CC(=O)N[C@@H](CC(C)C)C(=O)N[C@@H](CCCNC(=N)N)C(=O)N[C@@H](CCCNC(=N)N)C(=O)N[C@@H](C)C(=O)N[C@@H](CNC(=O)CSP(=O)(O)OP(=O)(O)OP(=O)(O)OC[C@H]1O[C@@H](n2cnc3c(N)ncnc32)[C@H](O)[C@@H]1O)C(=O)N[C@@H](CC(C)C)C(=O)NCC(=O)O` [kemptide-ATPγS conjugate] (Ac-LRRA[Dap](X1)LG-OH), for which the “inhibition of PKA (in words)” value in series [3] is “inhibitory to PKA”. Further, the Ki in series [3] (reversible competitive inhibition model, read-out: calculated Ki versus ATP) is 9.6 µM.
Turning to “adenosine 5′-O-3-thiotriphosphate [ATPγS, reference compound]”, the binding energy in series [1] is reported as 5.1 kcal/mol. For the same compound, in series [1] (linear competitive versus ATP, read-out: Ki versus ATP), the Ki was found to be 210 µM.
Consider `Nc1ncnc2c1ncn2[C@@H]1O[C@H](COP(=O)(O)OP(=O)(O)OP(=O)(O)SCC(=O)Nc2ccccc2)[C@@H](O)[C@H]1O` [Compound 3], for which, in series [1], the inhibition constant (Ki) is 114 µM, the “fold tighter binding than ATP-γS alone” value is reported as 2 fold, the “fold weaker as an inhibitor than 2” value is given as “approximately 300 fold” and the “mode of inhibition of IRK” value is reported as “linear competitive inhibitor of IRK versus ATP”.
Take `Nc1ncnc2c1ncn2[C@@H]1O[C@H](COP(=O)(O)OP(=O)(O)OP(=O)(O)O)[C@@H](O)[C@H]1O` [ATP, reference compound]: the Km in series [1] (substrates of IRK, read-out: Km app) was 71 µM; in series [4] it was 195 µM.
